Measurements: US12576168B2, “Peptide PET/SPECT probes specific to oncoproteins in tumor extracellular matrix” (CASE WESTERN RESERVE UNIVERSITY, priority 2019, dated 2026)
Values belong to the substance of their own block, whether it stands above or below them. Ends that are not written are not given here. * marks the point of attachment. DOTA = O=C(O)CN1CCN(CC(=O)O)CCN(CC(=O)*)CCN(CC(=O)O)CC1; AEEA = NCCOCCOCC(=O)O

Columns and labels:
[1] = tested on: PC3 human prostate cancer xenografts; test: PET/CT imaging of tracer uptake in PC3 tumors of tumor-bearing mice; assay type: in vivo
Protocol: (§1) The animal study has been approved by the Institutional Animal Care and Use Committee of the Case Western Reserve University (CWRU), […]. PC3 and LNCaP cells were acquired from the American Type Culture Collection (ATCC, Manassas, VA, USA) and cultured in Roswell Park Memorial Institute medium (Thermo Fisher Scientific, Waltham, MA) supplemented with 10% fetal bovine serum, 100 U/mL penicillin, and 0.1 mg/mL streptomycin in a humid incubator maintained at 37° C. and 5% CO2. Male athymic nude mice (4-6 weeks old) were acquired from the Case Comprehensive Cancer Center (Cleveland, OH, USA) and housed in the CWRU Animal Core Facility. Three million cells in high concentration Matrigel (Corning, Tewksbury, MA) were used for tumor inoculation. LNCaP cells were subcutaneously inoculated in the left flank of the mice. Four weeks later, PC3 cells were inoculated on the right flank of the same mice for PET imaging.
(§2) The radioisotope ^64Cu(II) was acquired from the University of Wisconsin-Madison (Madison, WI). The chelation of ZD2-PEG-DOTA with Cu(II) was first tested with cold CuCl2 in 0.1 N HCl aqueous solution under the same condition as radiolabeling. […] The formation of ZD2-DA-(Cu-DOTA) was verified by MALDI-TOF mass spectrometry (M+1: 1487.8, observed; 1486.04, calculated). […]

[2] = tested on: LNCaP human prostate cancer xenografts; test: PET/CT imaging of tracer uptake in LNCaP tumors of tumor-bearing mice; assay type: in vivo; settings: 22 h after injection, 7.4 MBq (200 μCi) per mouse i.v., N=4
Protocol: as §1, §2

EDB-FN [3] = target: T1, EDB-FN (Homo sapiens, UniProt P02751); test: ZD2-Cy5.5 fluorescence binding to slides of human pancreatic cancer xenografts; set-up: incubation of ZD2-Cy5.5 with tumor slides of the above tumor xenografts; from tissue; host or cells: Sections of BXPC3, Capan-1, Panc 10.05 and Panc-1 tumour xenografts from female nude mice; normal pancreas and muscle as controls
T1 sequence (P02751 32-2477): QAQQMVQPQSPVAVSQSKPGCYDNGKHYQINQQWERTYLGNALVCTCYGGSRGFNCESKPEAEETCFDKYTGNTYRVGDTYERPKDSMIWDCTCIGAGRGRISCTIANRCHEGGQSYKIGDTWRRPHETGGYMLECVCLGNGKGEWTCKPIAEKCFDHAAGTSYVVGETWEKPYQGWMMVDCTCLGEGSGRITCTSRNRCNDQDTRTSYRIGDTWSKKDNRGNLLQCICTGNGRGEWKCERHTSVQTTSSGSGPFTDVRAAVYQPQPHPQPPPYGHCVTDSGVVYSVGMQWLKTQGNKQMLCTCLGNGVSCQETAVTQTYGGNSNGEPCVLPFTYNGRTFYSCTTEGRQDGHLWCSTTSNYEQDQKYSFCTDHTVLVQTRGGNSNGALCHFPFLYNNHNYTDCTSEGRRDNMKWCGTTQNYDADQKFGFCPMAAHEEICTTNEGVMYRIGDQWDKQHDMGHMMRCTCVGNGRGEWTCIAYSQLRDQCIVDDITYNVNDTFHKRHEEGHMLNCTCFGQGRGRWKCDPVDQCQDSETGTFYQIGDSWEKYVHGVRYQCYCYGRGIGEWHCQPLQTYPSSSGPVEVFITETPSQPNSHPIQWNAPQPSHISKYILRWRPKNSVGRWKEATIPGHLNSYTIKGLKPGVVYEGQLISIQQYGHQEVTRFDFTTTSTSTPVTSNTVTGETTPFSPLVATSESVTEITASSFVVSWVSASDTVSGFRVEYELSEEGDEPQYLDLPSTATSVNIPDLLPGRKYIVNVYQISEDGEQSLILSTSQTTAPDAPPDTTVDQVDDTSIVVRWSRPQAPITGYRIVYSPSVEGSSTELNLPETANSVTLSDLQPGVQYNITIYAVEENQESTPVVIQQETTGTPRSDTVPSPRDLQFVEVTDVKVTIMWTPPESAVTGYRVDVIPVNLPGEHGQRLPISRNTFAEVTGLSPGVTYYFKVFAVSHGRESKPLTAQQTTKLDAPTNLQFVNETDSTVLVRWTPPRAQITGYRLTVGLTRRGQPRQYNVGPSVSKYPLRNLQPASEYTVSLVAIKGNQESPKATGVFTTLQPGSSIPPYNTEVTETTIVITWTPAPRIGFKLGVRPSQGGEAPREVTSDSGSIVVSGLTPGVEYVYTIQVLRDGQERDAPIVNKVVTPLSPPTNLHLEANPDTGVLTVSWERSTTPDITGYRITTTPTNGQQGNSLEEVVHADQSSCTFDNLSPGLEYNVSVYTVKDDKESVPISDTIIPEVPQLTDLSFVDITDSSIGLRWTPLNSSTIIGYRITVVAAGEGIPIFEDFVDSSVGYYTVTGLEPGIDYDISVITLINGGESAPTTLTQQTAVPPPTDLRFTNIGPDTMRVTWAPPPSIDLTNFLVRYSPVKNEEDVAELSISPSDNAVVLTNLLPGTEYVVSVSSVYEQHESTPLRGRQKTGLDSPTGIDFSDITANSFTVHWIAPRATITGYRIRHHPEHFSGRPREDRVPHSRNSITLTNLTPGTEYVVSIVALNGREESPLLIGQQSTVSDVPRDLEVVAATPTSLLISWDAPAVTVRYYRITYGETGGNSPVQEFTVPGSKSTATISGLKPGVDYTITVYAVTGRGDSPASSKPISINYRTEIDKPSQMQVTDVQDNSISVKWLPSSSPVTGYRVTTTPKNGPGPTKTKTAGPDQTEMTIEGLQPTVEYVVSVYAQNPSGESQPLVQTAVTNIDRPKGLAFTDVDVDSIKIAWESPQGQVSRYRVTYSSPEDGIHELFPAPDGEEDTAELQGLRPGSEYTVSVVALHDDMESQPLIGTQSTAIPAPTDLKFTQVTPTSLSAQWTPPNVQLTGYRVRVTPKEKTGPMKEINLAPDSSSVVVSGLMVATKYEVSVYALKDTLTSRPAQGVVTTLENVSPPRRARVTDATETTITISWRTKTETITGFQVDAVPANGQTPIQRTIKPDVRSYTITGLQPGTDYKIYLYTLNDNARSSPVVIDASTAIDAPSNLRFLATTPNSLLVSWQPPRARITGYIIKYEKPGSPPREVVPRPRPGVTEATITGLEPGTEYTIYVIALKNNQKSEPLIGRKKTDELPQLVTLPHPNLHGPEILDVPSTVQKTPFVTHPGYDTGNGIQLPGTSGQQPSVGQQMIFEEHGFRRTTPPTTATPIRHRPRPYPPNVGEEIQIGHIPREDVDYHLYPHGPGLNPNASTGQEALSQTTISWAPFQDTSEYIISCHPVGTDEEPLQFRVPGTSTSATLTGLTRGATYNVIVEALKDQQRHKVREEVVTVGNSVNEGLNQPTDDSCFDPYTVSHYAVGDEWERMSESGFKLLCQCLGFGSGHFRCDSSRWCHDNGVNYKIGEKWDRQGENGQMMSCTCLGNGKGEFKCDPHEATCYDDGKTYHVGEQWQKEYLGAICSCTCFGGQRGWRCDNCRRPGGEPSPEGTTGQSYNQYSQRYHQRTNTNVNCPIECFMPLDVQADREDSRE
Protocol: A ZD2 peptide (Thr-Val-Arg-The-Ser-Ala-Asp) targeted fluorescence tracer ZD2-Cy5.5 was synthesized according to a reported method to assess the binding of the peptide to EDB-FN in PaCa tumors. The binding specificity of ZD2 peptide to EDB-FN in pancreatic cancer has been tested by incubation of ZD2-Cy5.5 with tumor slides of the above tumor xenografts. […] ZD2 peptide is a promising targeting agent for specific binding of EDB-FN in PaCa tumors.

EDB-FN [4] = target: T1, EDB-FN; test: ZD2-Cy5.5 staining of human pancreatic specimens; assay type: binding; set-up: incubation of ZD2-Cy5.5 with tumor slides of the above tumor xenografts; from tissue; host or cells: Sections of BXPC3, Capan-1, Panc 10.05 and Panc-1 tumour xenografts from female nude mice; normal pancreas and muscle as controls
Water solubility = assay type: physicochemical
EDB-FN [5] = target: T1, EDB-FN; test: ZD2 peptide binding to prostate tissue; set-up: from tissue; host or cells: High-grade and low-grade prostate tumour and normal tissue

Substance: ZD2-DA-(^64Cu-DOTA): ZD2 peptide (TVRTSAD) linked via two repeats of 8-amino-3,6-dioxaoctanoic acid to DOTA, complexed with 64Cu ({DOTA-AEEA-AEEA}-TVRTSAD; also: 64Cu chelated by DOTA)
accumulation of PET tracer in PC3 tumors compared to LNCaP tumors ([1]; 22 h, P<0.05): over two-folds higher
accumulation of PET tracer in PC3 tumors (ROI) ([1]; 22 h after injection, 7.4 MBq (200 μCi) per mouse i.v., N=4): 7711±1994 Bq/mL
accumulation of PET tracer in LNCaP tumors (ROI) [2]: 3213±1511 Bq/mL

binding to EDB-FN in PaCa after pre-incubation with BC-1 anti-EDB-FN monoclonal antibody (EDB-FN [3]; BC-1/ZD2): blocked
binding to normal pancreas and muscle (EDB-FN [3]; tissue slides): No significant binding
binding to BXPC3, Capan-1, Panc 10.05 and Panc-1 tumor tissues (EDB-FN [3]; tumor xenograft slides): strong binding
fluorescence staining of precancerous pancreatic intraepithelial neoplasia (EDB-FN [4]; human PanIN): some fluorescence intensity
fluorescence staining of normal pancreas (EDB-FN [4]; human normal pancreas): little fluorescence
fluorescence staining of human PaCa specimen (EDB-FN [4]; human pancreatic cancer): strong red fluorescence
Substance: ZD2-Cy5.5: ZD2 peptide targeted fluorescence tracer synthesized according to a reported method (TVRTSAD; also: Cy5.5 fluorescence tracer attached, site not given here)

water solubility (Water solubility): highly water-soluble
binding in normal tissue (EDB-FN [5]): nonbinding
binding to low-grade tumor (EDB-FN [5]): weak binding affinity
binding toward high-grade prostate tumor (EDB-FN [5]): strong binding affinity
Substance: TVRTSAD-OH [ZD2 peptide, Thr-Val-Arg-Thr-Ser-Ala-Asp]
